This is an account of results in patent US10556926B2, “Synthetic artificial peptides with antimicrobial effect” (priority 2014, dated 2020).

Like-named read-outs stand apart in the source and are kept apart here. No end group written: not given here. Some results are limits rather than exact numbers.

For data set [1], the system named is human histiocytic lymphoma cell line U937. Kind of data set: Cytotoxicity, direct membrane damage (CytoTox 96), LD50. Format: cell-based. The settings on record: U937, two hours at 37° C., 0.25-64 μM. In a few lines: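 Membrane damage in peptide-treated U937 cells measured as LDH release in culture supernatant (30 min substrate, room temperature, dark; absorbance 490 nm). Negative-control signal subtracted and normalized to permeabilization control. LD50 (μM) from sigmoidal fit of relative cytotoxicity (%) versus peptide concentration at 50%.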

Data set [2] shares this test system. Kind of data set: Long-term growth inhibition, minimum toxic concentration (MTC). In a few lines:
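U937 cells (5·10^4/ml final, RPMI 1640 + 2 mM glutamine + 10% FCS) exposed to peptides at 0.25–64 µM for 2 h at 37 °C, 5% CO2, then cultured at least four further days. MTC taken as the lowest peptide concentration giving complete growth suppression after four days.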

In the next data set the test system is E. coli ML-35p. The data set is described as follows: Kinetics of permeabilization of the outer bacteria membrane (nitrocefin). Format: cell-based, Escherichia coli. The protocol:
The ability of the antimicrobial peptides for the respective permeabilization of the outer and inner bacteria membrane was tested by way of example on E. coli ML-35p (made available by Dr. R. E. Lehrer, Center for Health Sciences, Los Angeles, Calif., USA). The peptides were incubated in serial dilution with E. coli ML-35p and the time-dependent release of cell-internal components was measured in a slightly modified protocol according to Ericsson et al. (2002). For this purpose, the bacteria were cultured in Luria-Bertani (LB) medium with 100 μg/ml ampicillin (Fluka, Taufkirchen, Germany) until reaching an optical density of 0.4 at 600 nm wavelength. Then, the cells were washed three times by centrifugation at 4000 g for 1 min and subsequent up-take in 10 mM HEPES buffer pH 7.2. Finally, the cells were diluted to an optical density of 0.3 at 600 nm wavelength. To measure the permeabilization of the outer membrane, nitrocefin (Merck, Darmstadt, Germany) was diluted in HEPES buffer to a concentration of 60 μg/ml. The antimicrobial peptides were diluted in HEPES buffer to an end concentration of 12 μM, 24 μM, 48 μM and 96 μM end concentration. In the next step, 50 μl of nitrocefin were admixed with 50 μl of antimicrobial peptide and 50 μl of bacteria suspension such that an end concentration of 20 μg/ml of nitrocefin, 4 μM to 32 μM of antimicrobial peptide and bacteria with an optical density of 0.1 to 600 nm were present. The samples were mixed and the absorption at 500 nm wavelength was measured directly over a period of at least 90 min at 37° C. with regular shaking in a FLUOstar omega Microplate Reader (BMG Labtech, Ortenberg, Germany). The investigation of the permeabilization of the inner membrane was carried out in the same way except that instead of the nitrocefin accordingly 0-nitrophenyl-beta-D-galactoside (ONPG, Sigma-Aldrich) in an end concentration of 100 μg/ml was used and the absorption change was determined at a wavelength of 420 nm. The control used was samples without antimicrobial peptide, the positive control used for the membrane permeabilization was polymyxin B (Sigma-Aldrich) in an end concentration of 5 μM. For the data evaluation, firstly the measurement values of the corresponding negative controls were deducted from the measurement values of the samples, and the difference was then divided by the corresponding measurement values of the permeabilization control. Then, a graphical evaluation was carried out, the calculated values being plotted against the peptide concentration and being fitted with the help of the Origin Pro 8.1 G Software (OriginLab) according to a sigmoidal model.
As comparison parameter between the peptides, the times were ascertained from this at which 50% of the final signal level was reached. For this purpose, the equation with the percentage membrane permeabilization y, the time x in minutes, the lower plateau A1, the upper plateau A2, the point of inflection Log X0 and the Hill incline p
[formula] was used. The calculation of the parameters A1, A2, Log X0 and p was performed by the program by reference to the compensating curve. Further resolution of equation 5.1 for the case y=50 then produced for x the desired time at which the half-maximum signal level was reached.

Setting [3] is: U937, complete suppression of cell growth after four days.

Regarding `CC[C@H](C)[C@H](NC(=O)CN)C(=O)NCC(=O)N[C@@H](C)C(=O)N[C@H](C(=O)N[C@@H](CC(C)C)C(=O)N[C@@H](CCCCN)C(=O)N[C@H](C(=O)N[C@@H](CC(C)C)C(=O)N[C@H](C(=O)N[C@H](C(=O)NCC(=O)N[C@@H](CC(C)C)C(=O)N1CCC[C@H]1C(=O)N[C@@H](C)C(=O)N[C@@H](CC(C)C)C(=O)N[C@H](C(=O)N[C@@H](CO)C(=O)N[C@@H](Cc1c[nH]c2ccccc12)C(=O)N[C@H](C(=O)N[C@@H](CCCCN)C(=O)N[C@@H](CCCNC(=N)N)C(=O)N[C@@H](CCCCN)C(=O)N[C@@H](CCCNC(=N)N)C(=O)N[C@@H](CCC(N)=O)C(=O)N[C@@H](CCC(N)=O)C(N)=O)[C@@H](C)CC)[C@@H](C)CC)[C@@H](C)O)[C@@H](C)O)C(C)C)C(C)C` [Melittin], the “Toxicity LD50” value in data set [1] worked out at 1.4 µM. In addition, in data set [2] (setting [3]), the “Toxicity MTC (minimum toxic concentration)” value (“Toxicity MTC” for short) was determined as 2.0 µM.

Consider ILPWKWPWWPWRR [Indolicidin], for which the “Outer membrane, time to 50% of final signal” value with E. coli ML-35p (4 μM peptide), with E. coli ML-35p (8 μM peptide), with E. coli ML-35p (16 μM peptide) and with E. coli ML-35p (32 μM peptide) was over 90 min in each case. The “Toxicity LD50” value in data set [1] was over 64 µM. In addition, the “Toxicity MTC” value in data set [2] (setting [3]) was over 64 µM.

Take KILILIKRK-OH [N4]: the “Outer membrane, time to 50% of final signal” value in the data set with E. coli ML-35p (4 μM peptide) is given as 54 min; with E. coli ML-35p (8 μM peptide) it was 49 min; with E. coli ML-35p (16 μM peptide), 31 min; in the data set on E. coli ML-35p (32 μM peptide) it was 17 min. Moreover, the “Toxicity MTC” value in data set [2] was over 64 µM.

KRKRKILILIKRK-OH [N1]: the “Outer membrane, time to 50% of final signal” value with E. coli ML-35p (4 μM peptide) was 21 min; in the data set on E. coli ML-35p (8 μM peptide), 14 min; in the data set on E. coli ML-35p (16 μM peptide), 12 min; in the data set with E. coli ML-35p (32 μM peptide), 11 min. The “Toxicity MTC” value in data set [2] is 32 µM.

Regarding “MPRRRRSSSRPVRRRRRPRVSRRRRRRGGRRR (Protamine)”, the “Outer membrane, time to 50% of final signal” value in the data set with E. coli ML-35p (4 μM peptide), in the data set on E. coli ML-35p (8 μM peptide), in the data set with E. coli ML-35p (16 μM peptide) and in the data set on E. coli ML-35p (32 μM peptide) was under 1 min throughout. Also, the “Toxicity LD50” value in data set [1] is over 64 µM. Moreover, in data set [2], the “Toxicity MTC” value was determined as 16 µM.
